Molecules are shown by their SMILES. Bridge positions count the residues as written; N and C are the ends. Square brackets hold non-standard residues; d marks the D form. Peptide text beside a SMILES is read from it. Hyp = O=C(O)[C@@H]1C[C@@H](O)CN1

Data set [1] is described as follows: Physical stability of peptide analogues (Thioflavin T fibrillation). Format: physicochemical. The settings on record: maximum ThT signal normalized between hAMY maximum and buffer background; 40° C., shaking, four days; pH 7 per table title. The procedure, abridged: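 Peptides in 50 mM sodium acetate pH 4 or 50 mM sodium phosphate pH 7 were preincubated 1 h, mixed with 4 μM ThT, held at 40° C with 700 rpm shaking before each read. Fluorescence (ex 450/em 480 nm) every 10 min for four days; LOESS-smoothed maximum signal normalized in percent between hAMY and buffer.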

For another data set, the target named is T1, hAMY3 receptor (Homo sapiens, UniProt O60896+P30988).
T1 sequence (P30988 25-474): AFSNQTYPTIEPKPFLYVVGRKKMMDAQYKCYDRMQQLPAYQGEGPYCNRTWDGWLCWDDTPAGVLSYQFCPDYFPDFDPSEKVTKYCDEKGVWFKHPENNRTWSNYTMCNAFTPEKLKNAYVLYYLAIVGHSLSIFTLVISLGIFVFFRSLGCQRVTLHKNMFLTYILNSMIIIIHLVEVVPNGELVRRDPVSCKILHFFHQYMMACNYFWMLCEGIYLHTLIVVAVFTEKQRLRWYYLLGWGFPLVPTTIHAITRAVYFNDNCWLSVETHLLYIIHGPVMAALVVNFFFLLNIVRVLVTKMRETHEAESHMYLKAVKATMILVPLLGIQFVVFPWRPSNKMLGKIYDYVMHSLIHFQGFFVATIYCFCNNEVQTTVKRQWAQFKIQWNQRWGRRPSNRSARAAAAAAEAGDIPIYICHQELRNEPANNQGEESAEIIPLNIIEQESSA
T1 sequence (O60896 24-148 partner): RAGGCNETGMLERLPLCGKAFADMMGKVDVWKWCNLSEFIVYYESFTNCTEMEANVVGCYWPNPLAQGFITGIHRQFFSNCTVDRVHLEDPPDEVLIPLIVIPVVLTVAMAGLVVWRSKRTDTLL
In words: cAMP assay for in vitro receptor activation, hAMY3-R. Format: cell-based. The conditions noted are these: cAMP assay, hAMY3 receptor; read-out: hAMY3R EC50. The procedure, abridged: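 Stable hAMY3 cells; DPBS + 0.05% casein + 0.5 mM IBMX; graded compound doses, 30 min, RT; cAMP via HTRF Gs kit, TR-FRET read at 1 h.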
On the technique in general: cAMP levels reflect the balance of adenylyl cyclase and phosphodiesterase activity.

For `CC[C@H](C)[C@H](NC(=O)[C@H](CCC(N)=O)NC(=O)[C@H](Cc1c[nH]cn1)NC(=O)[C@H](C)NC(=O)[C@H](CC(C)C)NC(=O)[C@H](Cc1c[nH]c2ccccc12)NC(=O)[C@H](CCC(N)=O)NC(=O)[C@@H](NC(=O)[C@@H](NC(=O)[C@@H]1CSSC[C@H](NC(=O)CN)C(=O)N[C@@H](CCCNC(=N)N)C(=O)N[C@@H](Cc2ccccc2)C(=O)NCC(=O)N[C@@H]([C@@H](C)O)C(=O)N1)[C@@H](C)O)C(C)C)C(=O)N[C@@H](Cc1ccc(O)cc1)C(=O)N[C@@H](CCC(N)=O)C(=O)N[C@@H](Cc1ccccc1)C(=O)N[C@H](C(=O)N[C@@H](CC(=O)O)C(=O)N[C@@H](CCCCN)C(=O)N[C@@H](CC(=O)O)C(=O)N[C@@H](CCCCN)C(=O)N[C@@H](CC(=O)O)C(=O)N[C@@H](CC(N)=O)C(=O)N[C@H](C(=O)N[C@@H](C)C(=O)N1CCC[C@H]1C(=O)N[C@@H](CCCNC(=N)N)C(=O)N[C@H](C(=O)N[C@@H](CCCCN)C(=O)N[C@H](C(=O)N[C@@H](CO)C(=O)N1CCC[C@H]1C(=O)N[C@@H](CC(N)=O)C(=O)NCC(=O)N1C[C@H](O)C[C@H]1C(N)=O)[C@@H](C)CC)[C@@H](C)O)C(C)C)[C@@H](C)O` [compound 337] (H-GCRFGTCTVQWLAHQIYQFTDKDKDNVAPRTKISPNG[Hyp]-NH2; disulfide 2-7; N-terminus assumed), the “Max ThT signal (%)” value in data set [1] turned out to be 16.800%. Besides, the EC50 on hAMY3 receptor worked out at 0.019 nM.

`CC[C@H](C)[C@H](NC(=O)[C@H](CCC(N)=O)NC(=O)[C@H](Cc1c[nH]cn1)NC(=O)[C@H](C)NC(=O)[C@H](CC(C)C)NC(=O)[C@H](Cc1c[nH]c2ccccc12)NC(=O)[C@H](CCC(N)=O)NC(=O)[C@@H](NC(=O)[C@@H](NC(=O)[C@@H]1CSSC[C@H](NC(=O)CN)C(=O)N[C@@H](CCCNC(=N)N)C(=O)N[C@@H](Cc2ccccc2)C(=O)NCC(=O)N[C@@H]([C@@H](C)O)C(=O)N1)[C@@H](C)O)C(C)C)C(=O)N[C@@H](Cc1ccc(O)cc1)C(=O)N[C@@H](CCC(N)=O)C(=O)N[C@@H](Cc1ccccc1)C(=O)N[C@H](C(=O)N[C@@H](CC(=O)O)C(=O)N[C@@H](CCCCN)C(=O)N[C@@H](CC(=O)O)C(=O)N[C@@H](CCCCN)C(=O)N[C@@H](CC(=O)O)C(=O)N[C@@H](CC(N)=O)C(=O)N[C@H](C(=O)N[C@@H](C)C(=O)N1CCC[C@H]1C(=O)N[C@@H](CCCNC(=N)N)C(=O)N[C@H](C(=O)N[C@@H](CC(N)=O)C(=O)N[C@H](C(=O)N[C@@H](CO)C(=O)N1CCC[C@H]1C(=O)N[C@@H](CCC(N)=O)C(=O)NCC(=O)N[C@@H](Cc1ccc(O)cc1)C(N)=O)C(C)C)[C@@H](C)O)C(C)C)[C@@H](C)O` [compound 340] (H-GCRFGTCTVQWLAHQIYQFTDKDKDNVAPRTNVSPQGY-NH2; disulfide 2-7; N-terminus assumed): in data set [1], the “Max ThT signal (%)” value was 1.700%. Moreover, at hAMY3 receptor, the EC50 is 0.022 nM.

As to `CC[C@H](C)[C@H](NC(=O)[C@H](CCCCN)NC(=O)[C@@H](NC(=O)[C@H](CCCNC(=N)N)NC(=O)[C@@H]1CCCN1C(=O)[C@H](C)NC(=O)[C@@H](NC(=O)[C@H](CC(N)=O)NC(=O)[C@H](CC(=O)O)NC(=O)[C@H](CCCCN)NC(=O)[C@H](CC(=O)O)NC(=O)[C@H](CCCCN)NC(=O)[C@H](CC(=O)O)NC(=O)[C@@H](NC(=O)[C@H](Cc1ccccc1)NC(=O)[C@H](CCC(N)=O)NC(=O)[C@H](Cc1ccc(O)cc1)NC(=O)[C@@H](NC(=O)[C@H](CCC(N)=O)NC(=O)[C@H](Cc1c[nH]cn1)NC(=O)[C@H](C)NC(=O)[C@H](CC(C)C)NC(=O)[C@H](Cc1c[nH]c2ccccc12)NC(=O)[C@H](CCC(N)=O)NC(=O)[C@@H](NC(=O)[C@@H](NC(=O)[C@@H]1CSSC[C@H](NC(=O)CN)C(=O)N[C@@H](CCCNC(=N)N)C(=O)N[C@@H](Cc2ccccc2)C(=O)NCC(=O)N[C@@H]([C@@H](C)O)C(=O)N1)[C@@H](C)O)C(C)C)[C@@H](C)CC)[C@@H](C)O)C(C)C)[C@@H](C)O)C(=O)NCC(=O)N1CCC[C@H]1C(=O)N[C@@H](CC(N)=O)C(=O)NCC(=O)N1C[C@H](O)C[C@H]1C(N)=O` [compound 343] (H-GCRFGTCTVQWLAHQIYQFTDKDKDNVAPRTKIGPNG[Hyp]-NH2; disulfide 2-7; N-terminus assumed), the “Max ThT signal (%)” value in data set [1] came out at 24.850%. Besides, the EC50 at hAMY3 receptor worked out at 0.017 nM.

On to `CC[C@H](C)[C@H](NC(=O)[C@H](CCC(N)=O)NC(=O)[C@H](Cc1c[nH]cn1)NC(=O)[C@H](C)NC(=O)[C@H](CC(C)C)NC(=O)[C@H](Cc1c[nH]c2ccccc12)NC(=O)[C@H](CCC(N)=O)NC(=O)[C@@H](NC(=O)[C@@H](NC(=O)[C@@H]1CSSC[C@H](NC(=O)CN)C(=O)N[C@@H](CCCNC(=N)N)C(=O)N[C@@H](Cc2ccccc2)C(=O)NCC(=O)N[C@@H]([C@@H](C)O)C(=O)N1)[C@@H](C)O)C(C)C)C(=O)N[C@@H](Cc1ccc(O)cc1)C(=O)N[C@@H](CCC(N)=O)C(=O)N[C@@H](Cc1ccccc1)C(=O)N[C@H](C(=O)N[C@@H](CC(=O)O)C(=O)N[C@@H](CCCCN)C(=O)N[C@@H](CC(=O)O)C(=O)N[C@@H](CCCCN)C(=O)N[C@@H](CC(=O)O)C(=O)N[C@@H](CC(N)=O)C(=O)N[C@H](C(=O)N[C@@H](C)C(=O)N1CCC[C@H]1C(=O)N[C@@H](CCCNC(=N)N)C(=O)N[C@@H](CO)C(=O)N[C@@H](CC(N)=O)C(=O)N[C@H](C(=O)N[C@@H](CO)C(=O)N1CCC[C@H]1C(=O)N[C@@H](CCC(N)=O)C(=O)NCC(=O)N[C@@H](Cc1ccc(O)cc1)C(N)=O)C(C)C)C(C)C)[C@@H](C)O` [compound 345] (H-GCRFGTCTVQWLAHQIYQFTDKDKDNVAPRSNVSPQGY-NH2; disulfide 2-7; N-terminus assumed), for which the “Max ThT signal (%)” value in data set [1] is on record as 3.250%. Moreover, on hAMY3 receptor, the EC50 came out at 0.051 nM.

As for `CC[C@H](C)[C@H](NC(=O)[C@H](CC(N)=O)NC(=O)[C@H](CO)NC(=O)[C@H](CCCNC(=N)N)NC(=O)[C@@H]1CCCN1C(=O)[C@H](C)NC(=O)[C@@H](NC(=O)[C@H](CC(N)=O)NC(=O)[C@H](CC(=O)O)NC(=O)[C@H](CCCCN)NC(=O)[C@H](CC(=O)O)NC(=O)[C@H](CCCCN)NC(=O)[C@H](CC(=O)O)NC(=O)[C@@H](NC(=O)[C@H](Cc1ccccc1)NC(=O)[C@H](CCC(N)=O)NC(=O)[C@H](Cc1ccc(O)cc1)NC(=O)[C@@H](NC(=O)[C@H](CCC(N)=O)NC(=O)[C@H](Cc1c[nH]cn1)NC(=O)[C@H](C)NC(=O)[C@H](CC(C)C)NC(=O)[C@H](Cc1c[nH]c2ccccc12)NC(=O)[C@H](CCC(N)=O)NC(=O)[C@@H](NC(=O)[C@@H](NC(=O)[C@@H]1CSSC[C@H](NC(=O)CN)C(=O)N[C@@H](CCCNC(=N)N)C(=O)N[C@@H]([C@@H](C)O)C(=O)NCC(=O)N[C@@H]([C@@H](C)O)C(=O)N1)[C@@H](C)O)C(C)C)[C@@H](C)CC)[C@@H](C)O)C(C)C)C(=O)NCC(=O)N1CCC[C@H]1C(=O)N[C@@H](CC(N)=O)C(=O)NCC(=O)N1C[C@H](O)C[C@H]1C(N)=O` [compound 352] (H-GCRTGTCTVQWLAHQIYQFTDKDKDNVAPRSNIGPNG[Hyp]-NH2; disulfide 2-7; N-terminus assumed), in data set [1], the “Max ThT signal (%)” value worked out at 25.800%. Besides, the EC50 on hAMY3 receptor stood at 0.04 nM.

As for `CC[C@H](C)[C@H](NC(=O)[C@H](CCC(N)=O)NC(=O)[C@H](Cc1c[nH]cn1)NC(=O)[C@H](C)NC(=O)[C@H](CC(C)C)NC(=O)[C@H](Cc1c[nH]c2ccccc12)NC(=O)[C@H](CCC(N)=O)NC(=O)[C@@H](NC(=O)[C@@H](NC(=O)[C@@H]1CSSC[C@H](NC(=O)CN)C(=O)N[C@@H](CCCNC(=N)N)C(=O)N[C@@H](Cc2ccccc2)C(=O)NCC(=O)N[C@@H]([C@@H](C)O)C(=O)N1)[C@@H](C)O)C(C)C)C(=O)N[C@@H](Cc1ccc(O)cc1)C(=O)N[C@@H](CCC(N)=O)C(=O)N[C@@H](Cc1ccccc1)C(=O)N[C@H](C(=O)N[C@@H](CC(=O)O)C(=O)N[C@@H](CCCCN)C(=O)N[C@@H](CC(=O)O)C(=O)N[C@@H](CCCCN)C(=O)N[C@@H](CC(=O)O)C(=O)N[C@@H](CC(N)=O)C(=O)N[C@H](C(=O)N[C@@H](C)C(=O)N1CCC[C@H]1C(=O)N[C@@H](CCCNC(=N)N)C(=O)N[C@@H](CO)C(=O)N[C@@H](CCCCN)C(=O)N[C@H](C(=O)NCC(=O)N1CCC[C@H]1C(=O)N[C@@H](CCC(N)=O)C(=O)NCC(=O)N1C[C@H](O)C[C@H]1C(N)=O)C(C)C)C(C)C)[C@@H](C)O` [compound 353] (H-GCRFGTCTVQWLAHQIYQFTDKDKDNVAPRSKVGPQG[Hyp]-NH2; disulfide 2-7; N-terminus assumed), in data set [1], the “Max ThT signal (%)” value amounted to 30.300%. For the same compound, the EC50 on hAMY3 receptor was found to be 0.027 nM.

Broadly, the EC50 is the concentration needed to bring the measured effect to its halfway point.

Values taken from patent US12139520B2 (priority 2020, dated 2024).
